Legend:
Human Mnk1-GST = target: T1, Human Mnk1-GST (Homo sapiens, UniProt Q9BUB5); experiment: In vitro phosphorylation of human Tau by Mnk1 (kinase reaction, immunoblotting); type: biochemical
T1 construct: GST; made in house; host or cells: E. coli
Procedure: (§1) Kinase reaction: The kinase reactions were carried out in a total volume of 30 μl in reaction buffer (20 mM HEPES/KOH pH 7.4, 10 mM MgCl2, 2 mM DTT, 0.1% Pluronic F127, 0.01% BSA) containing 500 μM ATP, 0.5 μM human recombinant Tau (USBiological, T1040-10), inhibitors and kinases as indicated in figures. Human Mnk1-GST and Mnk2-GST was expressed in E. coli and purifies by Äkta Explorer 100 (Amersham) and pre-activated by human recombinant Erk2 (DeveloGen). Aliquots were stored at −80° C. up to use. Recombinant human PKA (Calbiochem, 539482) was used as positive control. All components of reactions were pre-diluted in reaction buffer. […] Samples were analysed by Immunoblotting.
(§2) Immunoblotting: Laemmli sample buffer (Biorad) was added to the stopped kinase reactions, subjected to SDS-PAGE and electroblotted on a nitrocellulose membrane (Schleicher & Schüll). The transferred membrane was incubated with NET-G buffer (50 mM Tris/HCl pH 7.5, 5 mM EDTA, 150 mM NaCl, 0.05% Triton X-100, 0.25% (w/v) gelatine) containing 1/1000 (v/v) anti Tau (phospho S262) or anti Tau (phospho S356) antibodies (Abcam, ab4856 and ab4857) over night at 4° C. After washing with NET-G buffer the membrane was treated with NET-G buffer containing 1/5000 (v/v) HRP-conjugated anti rabbit IgG antibody (Pierce) for 2 hours at room temperature.
(§3) For loading control membrane was stripped with stripping buffer (200 mM glycine/HCl pH 2.2, 0.1% SDS, 0.1% Tween 20) for 3 hours at room temperature. The membrane was then treated with NET-G buffer containing 1/4000 (v/v) anti Tau antibody (Abcam, ab19326). After washing with NET-G buffer the membrane was incubated with NET-G buffer containing 1/5000 (v/v) HRP-conjugated anti goat IgG antibody (DakoCytomation). Signals were detected with chemiluminescence using ECL Super Signal West Dura kit (Pierce).

Human Mnk2-GST = target: T2, Human Mnk2-GST (Homo sapiens, UniProt Q9HBH9); experiment: In vitro phosphorylation of human Tau by Mnk2 (kinase reaction, immunoblotting); type: biochemical
T2 construct: GST; made in house; host or cells: E. coli
Procedure: as §1, §2, §3

[1] = results summary of FIG. 2 / FIG. 3

T2 sequence (Q9HBH9 whole entry): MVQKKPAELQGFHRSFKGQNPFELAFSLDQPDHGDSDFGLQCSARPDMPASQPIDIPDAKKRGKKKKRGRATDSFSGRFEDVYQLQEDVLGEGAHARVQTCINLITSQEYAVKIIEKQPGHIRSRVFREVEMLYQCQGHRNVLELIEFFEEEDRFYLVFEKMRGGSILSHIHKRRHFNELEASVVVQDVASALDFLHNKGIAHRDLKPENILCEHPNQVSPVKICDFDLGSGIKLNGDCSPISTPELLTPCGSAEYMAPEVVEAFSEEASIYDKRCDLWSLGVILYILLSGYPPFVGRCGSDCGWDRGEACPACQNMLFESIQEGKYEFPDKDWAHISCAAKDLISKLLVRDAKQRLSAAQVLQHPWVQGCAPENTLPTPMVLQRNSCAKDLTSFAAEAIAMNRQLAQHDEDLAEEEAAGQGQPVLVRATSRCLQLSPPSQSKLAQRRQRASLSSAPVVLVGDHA
T1 sequence (Q9BUB5 whole entry): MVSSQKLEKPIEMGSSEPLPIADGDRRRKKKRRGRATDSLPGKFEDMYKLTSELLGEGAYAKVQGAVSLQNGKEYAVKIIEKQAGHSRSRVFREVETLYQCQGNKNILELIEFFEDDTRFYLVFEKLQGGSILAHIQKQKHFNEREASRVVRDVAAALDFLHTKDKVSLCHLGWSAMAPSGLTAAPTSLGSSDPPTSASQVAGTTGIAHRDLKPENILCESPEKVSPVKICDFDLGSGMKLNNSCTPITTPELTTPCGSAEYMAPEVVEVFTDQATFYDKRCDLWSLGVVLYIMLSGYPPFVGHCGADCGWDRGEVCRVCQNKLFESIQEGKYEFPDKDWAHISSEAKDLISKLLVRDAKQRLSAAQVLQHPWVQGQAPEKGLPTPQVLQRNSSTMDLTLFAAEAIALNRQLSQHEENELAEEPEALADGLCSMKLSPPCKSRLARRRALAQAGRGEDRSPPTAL

inhibition of in vitro phosphorylation of Ser262 in human Tau by Mnk1 (Human Mnk1-GST; 0.5 μM human Tau, 500 μM ATP, 120 min at 37° C., Erk2 (5 nM) used to activate Mnk, Western blot, FIG. 2A): in a dose dependent manner | inhibition of in vitro phosphorylation of Ser356 in human Tau by Mnk1 (Human Mnk1-GST; 0.5 μM human Tau, 500 μM ATP, 120 min at 37° C., Erk2 (5 nM) used to activate Mnk, Western blot, FIG. 2B): in a dose dependent manner | inhibition of Mnk1-dependent tau phosphorylation (Human Mnk1-GST; [1]): dose-dependent inhibition | inhibition of in vitro phosphorylation of Ser262 in human Tau by Mnk2 (Human Mnk2-GST; 0.5 μM human Tau, 500 μM ATP, 120 min at 37° C., Western blot, FIG. 2A / 3A): in a dose dependent manner | inhibition of in vitro phosphorylation of Ser356 in human Tau by Mnk2 (Human Mnk2-GST; 0.5 μM human Tau, 500 μM ATP, 120 min at 37° C., Western blot, FIG. 2B / 3B): in a dose dependent manner | inhibition of Mnk2-dependent tau phosphorylation (Human Mnk2-GST; [1]): dose-dependent inhibition
Structure (SMILES): CCOc1cc(C(N)=O)ccc1Nc1ncnc2scc(C)c12 [EDJ101401, 3-ethoxy-4-(5-methyl-thieno[2,3-D]pyrimidine-4-ylamino)-benzamide]
